Here are results for 44 compounds from patent US9388147B2 (Receptos, Inc., priority 2009, dated 2016).

Each structure is given as a SMILES string. Where only a bound is given, the exact number is not on record here.

The target in the assay is S1P1/EDG1 (Homo sapiens, UniProt P21453). In words: S1P1 CRE-bla CHOK1 reporter assay, inhibition of Forskolin induced cAMP. The format is cell-based. Particulars: agonist activity range, S1P1 CRE-bla CHOK1, 2 μM Forskolin; read-out: S1P1 ACTIVITY
Chain of S1P1/EDG1 (P21453 whole entry): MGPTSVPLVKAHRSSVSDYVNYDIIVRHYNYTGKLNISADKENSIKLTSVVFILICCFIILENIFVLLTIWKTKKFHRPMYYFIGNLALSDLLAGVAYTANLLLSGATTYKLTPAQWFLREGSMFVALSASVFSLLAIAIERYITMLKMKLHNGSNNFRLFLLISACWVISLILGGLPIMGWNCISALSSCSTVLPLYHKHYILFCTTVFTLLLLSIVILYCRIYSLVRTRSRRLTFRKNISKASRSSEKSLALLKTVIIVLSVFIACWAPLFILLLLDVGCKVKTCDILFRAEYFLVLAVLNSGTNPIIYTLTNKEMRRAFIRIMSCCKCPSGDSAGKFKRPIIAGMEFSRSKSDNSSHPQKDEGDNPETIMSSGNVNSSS
The protocol:
Generation of S1P1-Mediated Inhibition of cAMP Reporter Assay
A mammalian expression plasmid containing S1P1/EDG1 cloned into pcDNA3.1 was purchased from Missouri S&T cDNA Resource Centre. […] S1P1/pcDNA3.1 was transfected into the CRE-bla CHO K1 (Invitrogen) cell line, and stable single cell clones were selected using standard techniques.
S1P1 CRE-Bla CHOK1 Reporter Assay—Characterization of S1P1 Agonists
Cells were seeded into 384-well black wall/clear bottom plates at 10^4 cells/well/19.5 μl assay media (DMEM-phenol free, 0.5% charcoal/dextran stripped serum, 2 mM glutamine, 0.1 mM NEAA, 1 mM Na-Pyruvate, 25 mM Hepes) and incubated for 18 hrs at 37° C. in 5% CO2. Dose response curves (10-point) were generated in 10 mM Hepes, 0.1% Pluronic F127, in the presence of Forskolin. Cells were treated with 0.5 μl compound in the presence of 2 μM Forskolin for 4 hrs at 37° C. The FRET-based β-lactamase fluorescent substrate (LiveBLAzer™-FRET B/G Loading Kit CC4-AM; Invitrogen) was prepared according to manufacturer's directions, and incubated with cells for 2 hrs at room temperature. […] Data was analyzed by non-linear regression to determine the EC50 for inhibition of Forskolin induced cAMP.
For orientation: A reporter such as luciferase makes a cellular process visible.
On to `CC(C)Oc1ccc(-c2nc(-c3cccc4c3CCC4N[C@@H](C)c3ccccc3)no2)cc1C#N` (stereo in doubt) [Compound 123], for which the EC50 was over 5 nM. The figure for `CCOc1ccc(-c2nc(-c3cccc4c3CC[C@H]4O)no2)cc1OCC` [Compound 1] is 0.05 to 0.5 nM; for `CCOc1ccc(-c2nc(-c3cccc4c3CC[C@@H]4O)no2)cc1OCC` [Compound 2] it is 0.05 to 0.5 nM. Consider `CCOc1ccc(-c2nc(-c3cccc4c3CC[C@H]4O)no2)cc1C#N` [Compound 3], for which the EC50 lay in the range of 0.05 to 0.5 nM.

As to `CCOc1ccc(-c2nc(-c3cccc4c3CC[C@@H]4O)no2)cc1C#N` [Compound 4], the EC50 is 0.05 to 0.5 nM. With `CC(C)Oc1ccc(-c2nc(-c3cccc4c3CC[C@H]4O)no2)cc1C#N` [Compound 5, (R)-5-(3-(1-hydroxy-2,3-dihydro-1H-inden-4-yl)-1,2,4-oxadiazol-5-yl)-2-isopropoxybenzonitrile], the EC50 is under 0.05 nM.

For the compound `CC(C)Oc1ccc(-c2nc(-c3cccc4c3CC[C@@H]4O)no2)cc1C#N` [Compound 6, (S)-5-(3-(1-hydroxy-2,3-dihydro-1H-inden-4-yl)-1,2,4-oxadiazol-5-yl)-2-isopropoxy-benzonitrile], the EC50 is under 0.05 nM. Take `CC(C)Oc1ccc(-c2nc(-c3cccc4c3CC[C@H]4O)no2)cc1C(F)(F)F` [Compound 7]: the EC50 lay in the range of 0.5 to 5 nM. On to `CC(C)Oc1ccc(-c2nc(-c3cccc4c3CC[C@@H]4O)no2)cc1C(F)(F)F` [Compound 8], for which the EC50 lay in the range of 0.05 to 0.5 nM. Regarding `CCOc1ccc(-c2nc(-c3cccc4c3CC[C@H]4O)no2)cc1C(F)(F)F` [Compound 9], the EC50 fell in the range of 0.5 to 5 nM. For the compound `CCOc1ccc(-c2nc(-c3cccc4c3CC[C@@H]4O)no2)cc1C(F)(F)F` [Compound 10], the EC50 lay within 0.05 to 0.5 nM.

As to `CC(=O)O[C@@H]1CCc2c(-c3noc(-c4ccc(OC(C)C)c(C#N)c4)n3)cccc21` [Compound 13, (R)-4-(5-(3-cyano-4-isopropoxyphenyl)-1,2,4-oxadiazol-3-yl)-2,3-dihydro-1H-inden-1-yl acetate], the EC50 lay in the range of 0.5 to 5 nM.

On to `CC(C)Oc1ccc(-c2nc(-c3cccc4c3CC[C@H]4OC(=O)C(C)(C)C)no2)cc1C#N` [Compound 14, (R)-4-(5-(3-cyano-4-isopropoxyphenyl)-1,2,4-oxadiazol-3-yl)-2,3-dihydro-1H-inden-1-yl pivalate], for which the EC50 is over 5 nM. On to `CC(C)Oc1ccc(-c2nc(-c3cccc4c3CC[C@H]4NCC(N)=O)no2)cc1C#N` [Compound 51], for which the EC50 was under 0.05 nM.

As for `CNC(=O)CN[C@@H]1CCc2c(-c3noc(-c4ccc(OC(C)C)c(C#N)c4)n3)cccc21` [Compound 52], the EC50 lay within 0.05 to 0.5 nM.

As for `CC(C)Oc1ccc(-c2nc(-c3cccc4c3CC[C@@H]4N[C@@H](C)CO)no2)cc1C#N` [Compound 53, 5-(3-((S)-1-(((S)-1-hydroxypropan-2-yl)amino)-2,3-dihydro-1H-inden-4-yl)-1,2,4-oxadiazol-5-yl)-2-isopropoxybenzonitrile], the EC50 is 0.5 to 5 nM. Turning to `CC(C)Oc1ccc(-c2nc(-c3cccc4c3CC[C@H]4N[C@@H](C)CO)no2)cc1C#N` [Compound 54, 5-(3-((R)-1-(((S)-1-hydroxypropan-2-yl)amino)-2,3-dihydro-1H-inden-4-yl)-1,2,4-oxadiazol-5-yl)-2-isopropoxybenzonitrile], the EC50 lay within 0.05 to 0.5 nM.

Take `CC(C)Oc1ccc(-c2nc(-c3cccc4c3CC[C@@H]4N[C@H](C)CO)no2)cc1C#N` [Compound 55, 5-(3-((S)-1-(((R)-1-hydroxypropan-2-yl)amino)-2,3-dihydro-1H-inden-4-yl)-1,2,4-oxadiazol-5-yl)-2-isopropoxybenzonitrile]: the EC50 was in the range of 0.05 to 0.5 nM. The figure for `CC(C)Oc1ccc(-c2nc(-c3cccc4c3CC[C@H]4N[C@H](C)CO)no2)cc1C#N` [Compound 56, 5-(3-((R)-1-(((R)-1-hydroxypropan-2-yl)amino)-2,3-dihydro-1H-inden-4-yl)-1,2,4-oxadiazol-5-yl)-2-isopropoxybenzonitrile] is 0.05 to 0.5 nM. Consider `CC(C)Oc1ccc(-c2nc(-c3cccc4c3CC[C@H]4NCC(C)(C)O)no2)cc1C#N` [Compound 57], for which the EC50 is 0.5 to 5 nM.

Consider `CCN(CC)C(=O)CN[C@@H]1CCc2c(-c3noc(-c4ccc(OC(C)C)c(C#N)c4)n3)cccc21` [Compound 60], for which the EC50 is 0.5 to 5 nM. With `CC(C)Oc1ccc(-c2nc(-c3cccc4c3CC[C@H]4NCC(=O)O)no2)cc1C#N` [Compound 61] the figure was under 0.05 nM; with `CC(C)Oc1ccc(-c2nc(-c3cccc4c3CC[C@H]4NCCC(=O)O)no2)cc1C#N` [Compound 62, (R)-3-((4-(5-(3-cyano-4-isopropoxyphenyl)-1,2,4-oxadiazol-3-yl)-2,3-dihydro-1H-inden-1-yl)amino)propanoic acid], under 0.05 nM. Consider `CC(C)Oc1ccc(-c2nc(-c3cccc4c3CC[C@H]4N[C@H](C)C(=O)O)no2)cc1C#N` [Compound 63], for which the EC50 is under 0.05 nM. With `CC(C)Oc1ccc(-c2nc(-c3cccc4c3CC[C@H]4N[C@@H](C)C(=O)O)no2)cc1C#N` [Compound 64], the EC50 is under 0.05 nM. `CC(C)Oc1ccc(-c2nc(-c3cccc4c3CC[C@H]4NC(=O)CO)no2)cc1C#N` [Compound 65, (R)-N-(4-(5-(3 cyano-4-isopropoxyphenyl)-1,2,4-oxadiazol-3-yl)-2,3-dihydro-1H-inden-1-yl)-2-hydroxyacetamide]: the EC50 is under 0.05 nM. Consider `CC(C)Oc1ccc(-c2nc(-c3cccc4c3CC[C@H]4NC(=O)CN)no2)cc1C#N` [Compound 66], for which the EC50 fell in the range of 0.05 to 0.5 nM. The figure for `CC(C)Oc1ccc(-c2nc(-c3cccc4c3CC[C@H]4NC(=O)CN(C)C)no2)cc1C#N` [Compound 67] is 0.05 to 0.5 nM; for `CC(C)Oc1ccc(-c2nc(-c3cccc4c3CC[C@H]4NC(=O)CN3CCCC3)no2)cc1C#N` [Compound 68] it is 0.5 to 5 nM.

For `CC(C)Oc1ccc(-c2nc(-c3cccc4c3CC[C@@H]4NS(C)(=O)=O)no2)cc1C#N` [Compound 69, (S)-N-(4-(5-(3 cyano-4-isopropoxyphenyl)-1,2,4-oxadiazol-3-yl)-2,3-dihydro-1H-inden-1-yl)methanesulfonamide], the EC50 was under 0.05 nM. On to `CC(C)Oc1ccc(-c2nc(-c3cccc4c3CC[C@@H]4NS(=O)(=O)CC(=O)O)no2)cc1C#N` [Compound 71, (S)-2-(N-(4-(5-(3-cyano-4-isopropoxyphenyl)-1,2,4-oxadiazol-3-yl)-2,3-dihydro-1H-inden-1-yl)sulfamoyl)acetic acid], for which the EC50 is 0.05 to 0.5 nM.

For `CCS(=O)(=O)N[C@H]1CCc2c(-c3noc(-c4ccc(OC(C)C)c(C#N)c4)n3)cccc21` [Compound 73], the EC50 lay in the range of 0.5 to 5 nM. Consider `CNCCS(=O)(=O)N[C@H]1CCc2c(-c3noc(-c4ccc(OC(C)C)c(C#N)c4)n3)cccc21` [Compound 74], for which the EC50 was 0.05 to 0.5 nM. In the case of `CC(C)CS(=O)(=O)N[C@@H]1CCc2c(-c3noc(-c4ccc(OC(C)C)c(C#N)c4)n3)cccc21` [Compound 76], the EC50 was 0.5 to 5 nM. With `CC(C)Oc1ccc(-c2nc(-c3cccc4c3CC[C@@H]4NS(=O)(=O)CCN(C)C)no2)cc1C#N` [Compound 78, (S)-N-(4-(5-(3 cyano-4-isopropoxyphenyl)-1,2,4-oxadiazol-3-yl)-2,3-dihydro-1H-inden-1-yl)-2-(dimethylamino)ethanesulfonamide] the figure was 0.5 to 5 nM; with `CC(C)Oc1ccc(-c2nc(-c3cccc4c3CC[C@H]4NS(=O)(=O)Cc3ccccc3)no2)cc1C#N` [Compound 81], 0.5 to 5 nM; with `CC(C)Oc1ccc(-c2nc(-c3cccc4c3CC[C@H]4N3CC(O)C3)no2)cc1C#N` [Compound 83, (R)-5-(3-(1-(3-hydroxyazetidin-1-yl)-2,3-dihydro-1H-inden-4-yl)-1,2,4-oxadiazol-5-yl)-2-isopropoxybenzonitrile], 0.05 to 0.5 nM. Consider `CC(C)Oc1ccc(-c2nc(-c3cccc4c3CC[C@@H]4N3CC(O)C3)no2)cc1C#N` [Compound 84, (S)-5-(3-(1-(3-hydroxyazetidin-1-yl)-2,3-dihydro-1H-inden-4-yl)-1,2,4-oxadiazol-5-yl)-2-isopropoxybenzonitrile], for which the EC50 lay in the range of 0.05 to 0.5 nM. With `CC(C)N[C@H]1CCc2c(-c3noc(-c4ccc(OC(C)C)c(C#N)c4)n3)cccc21` [Compound 87] the figure was 0.5 to 5 nM; with `COCCN[C@H]1CCc2c(-c3noc(-c4ccc(OC(C)C)c(C#N)c4)n3)cccc21` [Compound 89], 0.05 to 0.5 nM. With `N#Cc1cccc(-c2nc(-c3cccc4c3CC[C@H]4N)no2)c1` [Compound 92, (R)-3-(3-(1-amino-2,3-dihydro-1H-inden-4-yl)-1,2,4-oxadiazol-5-yl)benzonitrile], the EC50 was over 5 nM. As to `N#Cc1cc(OC(F)(F)F)cc(-c2nc(-c3cccc4c3CC[C@H]4N)no2)c1` [Compound 93, (R)-3-(3-(1-amino-2,3-dihydro-1H-inden-4-yl)-1,2,4-oxadiazol-5-yl)-5-(trifluoromethoxy)benzonitrile], the EC50 was over 5 nM. Turning to `CCOc1ccc(-c2nc(-c3cccc4c3CC[C@H]4N)no2)cc1C#N` [Compound 94], the EC50 was in the range of 0.5 to 5 nM. As to `CC(C)Oc1ccc(-c2nc(-c3cccc4c3CC[C@H]4N)no2)cc1Cl` [Compound 95, (R)-4-(5-(3-chloro-4-isopropoxyphenyl)-1,2,4-oxadiazol-3-yl)-2,3-dihydro-1H-inden-1-amine], the EC50 is over 5 nM.
